Measurements taken from US6362181B1, “Isoquinolones” (Warner-Lambert Company, priority 1996, dated 2002).
In brackets after ≈: the same amount, converted by molar mass. Like-named read-outs stand apart in the source and are kept apart here.

Key:
B. subtilis RB1 = assay: Antibacterial assay, standard microtitration, MIC; assay type: cell-based; conditions: Bacillus subtilis, Gram positive, read-out: Minimum Inhibitory Concentrations, B. subtilis RB1
Method: (§1) The compounds of the present invention were tested against an assortment of gram negative and gram positive organisms using standard microtitration techniques (Cohen, et al., Antimicrob. Agents Chemother., 1985;28:766; Heifetz, et al. Antimicrob. Agents Chemother., 1974;6:124).

E. coli B90 = assay: Antibacterial assay, standard microtitration, MIC; assay type: cell-based; conditions: Escherichia coli, Gram negative, read-out: Minimum Inhibitory Concentrations, E. coli B90
Method: as §1

E. coli MC4100 = assay: Antibacterial assay, standard microtitration, MIC; assay type: cell-based; conditions: Escherichia coli, Gram negative, read-out: Minimum Inhibitory Concentrations, E. coli MC4100
Method: as §1

S. aureus 29213 = assay: Antibacterial assay, standard microtitration, MIC; assay type: cell-based; conditions: Staphylococcus aureus, Gram positive, read-out: Minimum Inhibitory Concentrations, S. aureus 29213
Method: as §1

S. pyogenes C203 = assay: Antibacterial assay, standard microtitration, MIC; assay type: cell-based; conditions: Streptococcus pyogenes, Gram positive, read-out: Minimum Inhibitory Concentrations, S. pyogenes C203
Method: as §1

[1] = Mammalian cell cytotoxicity, colony formation; assay type: cell-based; conditions: Chinese hamster
Method: Mammalian Cell Cytotoxicity
The cells were grown overnight and treated with drug for 3 hours at 37° C., at which time the compound containing media was replaced with fresh media. The cells were then incubated for 5 days and examined for colony formation.

E. coli gyrase = biological target: T1, E. coli gyrase (Escherichia coli, UniProt P0AES4+P0AES6); assay: DNA gyrase supercoiling inhibition assay; assay type: biochemical
T1 construct: purchased Lucent, Ltd., Leicester, UK
T1 sequence (P0AES4 whole entry, one chain of several): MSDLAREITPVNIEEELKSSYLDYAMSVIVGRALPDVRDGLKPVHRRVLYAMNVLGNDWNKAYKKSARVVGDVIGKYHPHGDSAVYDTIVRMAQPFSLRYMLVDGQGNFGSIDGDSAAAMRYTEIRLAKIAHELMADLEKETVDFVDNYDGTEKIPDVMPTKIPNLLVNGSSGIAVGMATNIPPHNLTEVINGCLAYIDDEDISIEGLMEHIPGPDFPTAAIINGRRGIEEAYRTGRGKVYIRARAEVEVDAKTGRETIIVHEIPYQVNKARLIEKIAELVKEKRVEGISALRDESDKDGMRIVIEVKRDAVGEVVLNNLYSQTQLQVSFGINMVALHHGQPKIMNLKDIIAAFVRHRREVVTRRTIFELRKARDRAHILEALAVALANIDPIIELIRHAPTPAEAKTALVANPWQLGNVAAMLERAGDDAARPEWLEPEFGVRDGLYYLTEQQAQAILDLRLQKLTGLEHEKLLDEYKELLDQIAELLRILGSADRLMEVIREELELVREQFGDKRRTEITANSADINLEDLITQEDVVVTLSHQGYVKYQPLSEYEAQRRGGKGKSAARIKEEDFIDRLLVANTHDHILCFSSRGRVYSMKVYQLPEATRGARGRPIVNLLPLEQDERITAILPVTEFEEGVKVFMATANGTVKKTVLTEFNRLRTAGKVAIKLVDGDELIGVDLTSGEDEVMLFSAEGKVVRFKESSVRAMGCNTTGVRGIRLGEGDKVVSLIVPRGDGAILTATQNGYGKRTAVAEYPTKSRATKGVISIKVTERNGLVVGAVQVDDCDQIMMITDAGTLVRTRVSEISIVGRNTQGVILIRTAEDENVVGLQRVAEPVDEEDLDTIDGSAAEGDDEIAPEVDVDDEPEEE
Method: The effects of test agents on the activity of DNA gyrase was determined by the supercoiling inhibition assay, following reaction conditions recommended by the enzyme supplier (Lucent, Ltd., Leicester, UK), as follows. Reactions were performed in buffer G (35 mM Tris-HCL (pH 7.5), 24 mM KCl, 4 mM MgCl2, 2 mM DTT, 1.8 mM spermidine, 1 mM ATP, 0.1 mg/mL bovine serum albumin). 0.25 μg of relaxed plasmid pBR322 (Lucent, Ltd., Leicester, UK) was reacted with 1 U E. coli gyrase (Lucent, Ltd., Leicester, UK), in the absence or presence of drugs, for 30 minutes at 37° C. Reactions were stopped by the addition of SDS and proteinase K to respective final concentrations of 1% and 0.5 mg/mL. After an additional 30 minutes at 37° C., one-tenth volume of 10×loading buffer (0.3% bromophenol blue, 16% Ficoll, 10 mM Na2HPO4) was added, and reactions were loaded onto agarose gels and electrophoresed as described above for intercalation assays. The concentration of drug inhibiting 50% of the supercoiling activity of DNA gyrase is given as an IC50 and recorded in Table 2.

E. coli topoisomerase IV = biological target: T2, E. coli topoisomerase IV (Escherichia coli, UniProt P0AFI2+P20083); assay: Topoisomerase IV k-DNA decatenation assay; assay type: biochemical
T2 construct: made in house; host or cells: E. coli overexpressing strains
T2 sequence (P0AFI2 whole entry): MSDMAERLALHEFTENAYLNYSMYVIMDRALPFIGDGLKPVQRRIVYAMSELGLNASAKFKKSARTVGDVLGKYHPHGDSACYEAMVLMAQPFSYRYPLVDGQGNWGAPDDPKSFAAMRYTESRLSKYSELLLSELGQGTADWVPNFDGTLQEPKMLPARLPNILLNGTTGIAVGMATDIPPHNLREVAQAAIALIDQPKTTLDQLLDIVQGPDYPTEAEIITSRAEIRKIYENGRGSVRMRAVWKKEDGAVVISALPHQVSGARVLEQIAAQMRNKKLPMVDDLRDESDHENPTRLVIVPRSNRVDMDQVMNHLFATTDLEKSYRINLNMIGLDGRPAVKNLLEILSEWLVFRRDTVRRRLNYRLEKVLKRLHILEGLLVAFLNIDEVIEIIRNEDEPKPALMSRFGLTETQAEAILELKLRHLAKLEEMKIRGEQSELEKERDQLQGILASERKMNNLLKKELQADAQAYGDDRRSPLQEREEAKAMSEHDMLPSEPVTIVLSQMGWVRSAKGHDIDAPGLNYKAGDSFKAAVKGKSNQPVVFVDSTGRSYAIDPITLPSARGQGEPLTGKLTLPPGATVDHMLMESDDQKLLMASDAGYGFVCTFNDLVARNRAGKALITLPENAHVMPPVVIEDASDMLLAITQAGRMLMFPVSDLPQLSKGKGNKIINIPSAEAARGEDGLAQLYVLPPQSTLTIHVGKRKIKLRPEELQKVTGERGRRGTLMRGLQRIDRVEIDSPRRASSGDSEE
T2 sequence (P20083 whole entry): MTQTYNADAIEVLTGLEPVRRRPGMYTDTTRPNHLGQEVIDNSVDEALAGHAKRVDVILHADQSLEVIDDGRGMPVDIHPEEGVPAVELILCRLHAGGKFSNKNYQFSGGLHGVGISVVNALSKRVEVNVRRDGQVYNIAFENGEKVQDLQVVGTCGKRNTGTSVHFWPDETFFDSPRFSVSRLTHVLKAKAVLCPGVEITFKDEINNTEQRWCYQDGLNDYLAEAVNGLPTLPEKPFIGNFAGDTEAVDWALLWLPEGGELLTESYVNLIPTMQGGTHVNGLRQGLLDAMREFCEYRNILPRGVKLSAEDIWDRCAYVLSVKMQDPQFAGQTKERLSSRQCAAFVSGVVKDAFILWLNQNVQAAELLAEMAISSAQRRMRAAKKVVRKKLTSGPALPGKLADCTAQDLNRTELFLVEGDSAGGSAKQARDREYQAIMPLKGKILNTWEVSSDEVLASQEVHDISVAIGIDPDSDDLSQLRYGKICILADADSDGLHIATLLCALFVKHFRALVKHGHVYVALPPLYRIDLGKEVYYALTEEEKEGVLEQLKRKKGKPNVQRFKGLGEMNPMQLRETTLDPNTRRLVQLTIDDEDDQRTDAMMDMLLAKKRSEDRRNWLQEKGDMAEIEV
Method: Topoisomerase IV was purified from E. coli overexpressing strains and the compounds were assayed according to literature conditions (Journal of Biological Chemistry, 1993;268(32):24481). The k-DNA decatenation assay was used. Briefly, reactions were performed in buffer R (40 mM Tris-HCl (pH 7.5), 6 mM MgCl2, 10 mM DTT, 100 mM potassium glutamate, 40 μM ATP, 50 μg/mL bovine serum albumin, 10 mM NaCl). 0.2 μg of kinetoplast DNA (k-DNA; TopoGen, Columbus, Ohio) was incubated with 5 ng of E. coli topoisomerase IV in the presence or absence of test compounds for 10 minutes at 37° C. Subsequently, one-tenth volume of 10×gel loading buffer (0.3% bromophenol blue, 16% Ficoll, 10 mM Na2HPO4) was added, and samples were loaded onto horizontal 0.8% agarose gels prepared with TBE buffer and containing 0.05 μg/mL of ethidium bromide. Electrophoresis was at 70 V for 2 to 4 hours. Gels were then examined by exposure to UV light. The concentration of drug inhibiting 50% of the decantenating activity of Topoisomerase IV is given as an IC50 and recorded in Table 2.

relaxed plasmid pBR322 = assay: DNA intercalation/binding assay; conditions: pBR322 with calf thymus topoisomerase I, 30 minutes at 37° C.; read-out: Drug Concentration causing 50% Intercalation of DNA
Method: Compounds of the present invention were evaluated for their ability to intercalate/bind to DNA, using the procedure described in Nucleic Acids Research, 1987;15(15):6713. Specifically, 0.2 μg of relaxed plasmid pBR322 (Lucent, Ltd., Leicester, UK) was treated with 2 U of calf thymus topoisomerase I (Gibco/BRL, Gaithersburg, Md.) in buffer I (10 mM Tris-HCl (Ph 7.5), 50 mM KCl, 5 mM MgCl2, 1 mM Na2EDTA, 15 μg/mL bovine serum albumin) in the presence or absence of test compounds. Reaction were incubated for 30 minutes at 37° C.; volumes were typically 30 μL. Reactions were terminated by the addition of sodium dodecylsulfate (SDS) to 1% and proteinase K to 0.5 mg/mL final concentrations. After an additional 30 minutes at 37° C., one-tenth volume of 10×concentrated loading buffer (0.3% bromophenol blue, 16% Ficoll, 10 mM Na2HPO4) was added, and samples were loaded onto horizontal 0.8% agarose gels prepared in TAE buffer. Electrophoresis was at 22 V for 14 hours. Gels were then stained by soaking for 1.5 hours in deionized water containing 0.2 μg/mL of ethidium bromide, followed by destaining in deionized water for an additional 1.5 hours. Gels were examined and photographed following exposure to UV light. The concentration of the drug which induced a 50% change in the DNA by intercalation is represented by an intercalation IC50 and is recorded in Table 4.

E. coli To1C = assay: Antibacterial assay, standard microtitration, MIC; assay type: cell-based; conditions: Escherichia coli, TO1C, read-out: Minimum Inhibitory Concentrations, E. coli To1C
Method: as §1

[2] = Chinese hamster cells, drug for 3 hours at 37° C., colony formation after 5 days, read-out: 50% Cytotoxic Conc. in CHO cells
[3] = supercoiling of relaxed pBR322, 30 minutes at 37° C., read-out: DNA Gyrase IC50
[4] = k-DNA decatenation, 10 minutes at 37° C., read-out: Top IV IC50

Compound O=C1c2cccc3c(Br)ccc(c23)C(=O)N1O [Example 4, 6-Bromo-2-hydroxy-benzo[de]isoquinoline-1,3-dione] has an MIC (B. subtilis RB1) of 8 µg/mL (≈ 27.4 µM), an MIC (E. coli B90) of 8 µg/mL (≈ 27.4 µM) and an MIC (E. coli MC4100) of over 64 µg/mL. The MIC (S. aureus 29213) was 16 µg/mL (≈ 54.8 µM), the MIC (S. pyogenes C203) was over 64 µg/mL and the IC50 at 3 h [1, 2] was over 250 µM.
Nc1cc2c3c(cccc3c1)C(=O)N(O)C2=O [Example 8, 5-Amino-2-hydroxy-benzo[de]isoquinoline-1,3-dione] showed an MIC (B. subtilis RB1) of 8 µg/mL (≈ 35.1 µM), an MIC (E. coli B90) of 4 µg/mL (≈ 17.5 µM) and an MIC (E. coli MC4100) of 8 µg/mL (≈ 35.1 µM). For the same compound, the MIC (S. aureus 29213) was 32 µg/mL (≈ 140 µM), the MIC (S. pyogenes C203) was over 64 µg/mL and the IC50 (E. coli gyrase; [3]) was 7 µM. It also gave an IC50 (E. coli topoisomerase IV; [4]) of 65 µM, an IC50 at 3 h [1, 2] of over 500 µM and an IC50 (relaxed plasmid pBR322) of over 100 µM.
COc1cc2c3c(cccc3c1)C(=O)N(O)C2=O [Example 13, 2-Hydroxy-5-methoxy-benzo[de]isoquinoline-1,3-dione] showed an MIC (B. subtilis RB1) of 1 µg/mL (≈ 4.11 µM), an MIC (E. coli B90) of 0.13 µg/mL (≈ 0.534 µM) and an MIC (E. coli MC4100) of 0.5 µg/mL (≈ 2.06 µM). It also gave an MIC (S. aureus 29213) of 8 µg/mL (≈ 32.9 µM), an MIC (S. pyogenes C203) of over 64 µg/mL and an IC50 (E. coli gyrase; [3]) of 11 µM. For the same compound, the IC50 (E. coli topoisomerase IV; [4]) was 29 µM, the IC50 at 3 h [1, 2] was over 250 µM and the IC50 (relaxed plasmid pBR322) was over 100 µM.
CSc1ccc2c3c(cccc13)C(=O)N(O)C2=O [Example 16, 2-Hydroxy-6-methylthio-benzo[de]isoquinoline-1,3-dione] showed an MIC (B. subtilis RB1) of 2 µg/mL (≈ 7.71 µM), an MIC (E. coli B90) of 1 µg/mL (≈ 3.86 µM) and an MIC (E. coli MC4100) of over 64 µg/mL. The MIC (E. coli To1C) was 1 µg/mL (≈ 3.86 µM), the MIC (S. aureus 29213) was 8 µg/mL (≈ 30.9 µM) and the MIC (S. pyogenes C203) was 64 µg/mL (≈ 247 µM). It also gave an IC50 at 3 h [1, 2] of over 250 µM and an IC50 (relaxed plasmid pBR322) of over 100 µM.
Nc1cc2c3c(cccc3c1Cl)C(=O)N(O)C2=O [Example 28, 5-Amino-6-chloro-2-hydroxy-benzo[de]isoquinoline-1,3-dione] gave an MIC (B. subtilis RB1) of 4 µg/mL (≈ 15.2 µM), an MIC (E. coli B90) of 1 µg/mL (≈ 3.81 µM) and an MIC (E. coli MC4100) of 16 µg/mL (≈ 60.9 µM). The MIC (E. coli To1C) was 1 µg/mL (≈ 3.81 µM), the MIC (S. aureus 29213) was 4 µg/mL (≈ 15.2 µM) and the MIC (S. pyogenes C203) was over 64 µg/mL. For the same compound, the IC50 (E. coli gyrase; [3]) was 20 µM, the IC50 (E. coli topoisomerase IV; [4]) was 7 µM and the IC50 at 3 h [1, 2] was over 250 µM. It also gave an IC50 (relaxed plasmid pBR322) of over 100 µM.
In the case of COc1cc2c3c(cccc3c1Br)C(=O)N(O)C2=O [Example 32, 6-Bromo-2-hydroxy-5-methoxy-benzo[de]isoquinoline-1,3-dione], the MIC (B. subtilis RB1) is reported as 4 µg/mL (≈ 12.4 µM), the MIC (E. coli B90) is reported as 8 µg/mL (≈ 24.8 µM) and the MIC (E. coli MC4100) is reported as over 64 µg/mL. It also gave an MIC (E. coli To1C) of 4 µg/mL (≈ 12.4 µM), an MIC (S. aureus 29213) of 8 µg/mL (≈ 24.8 µM) and an MIC (S. pyogenes C203) of over 64 µg/mL. The IC50 at 3 h [1, 2] was over 250 µM and the IC50 (relaxed plasmid pBR322) was over 100 µM.
O=C1c2cc([N+](=O)[O-])cc3cc([N+](=O)[O-])cc(c23)C(=O)N1O [Example 42, 2-Hydroxy-5,8-dinitro-benzo[de]isoquinoline-1,3-dione] showed an MIC (B. subtilis RB1) of 16 µg/mL (≈ 52.8 µM), an MIC (E. coli B90) of 1 µg/mL (≈ 3.3 µM) and an MIC (E. coli MC4100) of 4 µg/mL (≈ 13.2 µM). The MIC (S. aureus 29213) was 8 µg/mL (≈ 26.4 µM), the MIC (S. pyogenes C203) was 32 µg/mL (≈ 106 µM) and the IC50 (E. coli gyrase) was 20 µM. For the same compound, the IC50 (E. coli topoisomerase IV) was 20 µM, the IC50 at 3 h ([1]; drug for 3 hours at 37° C., colony formation after 5 days, read-out: 50% Cytotoxic Conc. in CHO cells) was 160 µM and the IC50 (relaxed plasmid pBR322) was over 100 µM.
Work on CN1CCN(c2c(Br)cc3c4c(cccc24)C(=O)N(O)C3=O)CC1 [Example 50, 5-Bromo-2-hydroxy-6-(4-methylpiperazin-1-yl)-benzo[de]isoquinoline-1,3-dione] yielded an MIC (B. subtilis RB1) of 4 µg/mL (≈ 10.3 µM), an MIC (E. coli B90) of 2 µg/mL (≈ 5.13 µM) and an MIC (E. coli MC4100) of 32 µg/mL (≈ 82 µM). It also gave an MIC (E. coli To1C) of 2 µg/mL (≈ 5.13 µM), an MIC (S. aureus 29213) of 8 µg/mL (≈ 20.5 µM) and an MIC (S. pyogenes C203) of 8 µg/mL (≈ 20.5 µM). The IC50 (E. coli gyrase; [3]) was 31 µM, the IC50 (E. coli topoisomerase IV; [4]) was 97 µM and the IC50 at 3 h [1, 2] was 88 µM.
In the case of NC1CCN(c2ccc3c4c(cccc24)C(=O)N(O)C3=O)C1 (centres unmarked) [Example 62, 6-(3-Amino-pyrrolidin-1-yl)-2-hydroy-benzo[de]isoquinoline-1,3-dione], the MIC (B. subtilis RB1) is reported as 64 µg/mL (≈ 215 µM), the MIC (E. coli B90) is reported as 32 µg/mL (≈ 108 µM) and the MIC (E. coli MC4100) is reported as over 64 µg/mL. The MIC (E. coli To1C) was 8 µg/mL (≈ 26.9 µM), the MIC (S. aureus 29213) was over 64 µg/mL and the MIC (S. pyogenes C203) was 4 µg/mL (≈ 13.5 µM). For the same compound, the IC50 (E. coli gyrase; [3]) was 18 µM and the IC50 at 3 h [1, 2] was 177 µM.
For CN(C)CCN1C(=O)c2cc([N+](=O)[O-])cc3cc([N+](=O)[O-])cc(c23)C1=O [Ref #1, 5,8-dinitro-2-(2-dimethylaminoethyl)-benzo[de]isoquinoline-1,3-dione, reference compound], the MIC (B. subtilis RB1) was 2 µg/mL (≈ 5.58 µM), the MIC (E. coli B90) was 2 µg/mL (≈ 5.58 µM) and the MIC (E. coli MC4100) was 8 µg/mL (≈ 22.3 µM). It also gave an MIC (S. aureus 29213) of 4 µg/mL (≈ 11.2 µM), an MIC (S. pyogenes C203) of 2 µg/mL (≈ 5.58 µM) and an IC50 at 3 h [1] of under 8 µM. It also gave an IC50 (relaxed plasmid pBR322) of under 10 µM.
